Data as given in patent US12678458B2, “Antiseptic composition” (BOBS SILVER, priority 2020, dated 2026).
Converted amounts (≈) assume the structure as drawn.

Columns and labels:
Total Gram-negative [1] = assay: organism not typed; format: cell-based
Staphylococcus aureus = assay: Minimum inhibitory concentrations, two-fold serial dilution in agar; format: cell-based; conditions: S. aureus
Candida albicans = assay: as above; format: cell-based; conditions: C. albicans
[2] = tested on: Total (all microorganisms); assay: Agar diffusion test, inhibitory zones; format: cell-based
[3] = tested on: Clostridium perfringens ATCC 13124 (NBIMCC 8615); format: cell-based; conditions: C. perfringens; 0.1 ml in 9 mm wells
[4] = tested on: Salmonella enterica subsp. enterica ATCC 1304 (NBIMCC 8691); assay: Agar diffusion test, inhibitory zones; format: cell-based; conditions: S. enterica; 0.1 ml in 9 mm wells
[5] = tested on: Total Gram-positive bacteria; format: cell-based
Pseudomonas aeruginosa [6] = assay: Minimum inhibitory concentrations, two-fold serial dilution in agar; format: cell-based; conditions: P. aeruginosa
Total bacteria [7] = assay: Agar diffusion test, inhibitory zones; format: cell-based
[8] = tested on: Esherichia coli ATCC-8739 (NBIMCC 3397); assay: Agar diffusion test, inhibitory zones; format: cell-based, Escherichia coli; conditions: E. coli; 0.1 ml in 9 mm wells
Total bacteria [9] = assay: Minimum inhibitory concentrations, two-fold serial dilution in agar; format: cell-based
Clostridium perfringens = assay: microbe, parasite or virus in culture; format: cell-based
Total Gram-positive = assay: organism not typed; format: cell-based
[10] = tested on: Staphylococcus aureus subsp. aureus ATCC-6538 (NBIMCC 3359); assay: Agar diffusion test, inhibitory zones; format: cell-based; conditions: S. aureus; 0.1 ml in 9 mm wells
Pseudomonas aeruginosa [11] = assay: Agar diffusion test, inhibitory zones; format: cell-based; conditions: P. aeruginosa; 0.1 ml in 9 mm wells
Salmonella enterica = assay: microbe, parasite or virus in culture; format: cell-based
Total Gram-negative [12] = assay: Agar diffusion test, inhibitory zones; format: cell-based
Esherichia coli = assay: Minimum inhibitory concentrations, two-fold serial dilution in agar; format: cell-based, Escherichia coli; conditions: E. coli
Streptococcus pyogenes [13] = assay: Agar diffusion test, inhibitory zones; format: cell-based; conditions: S. pyogenes; 0.1 ml in 9 mm wells
[14] = tested on: Total (all microorganisms); assay: Minimum inhibitory concentrations, two-fold serial dilution in agar; format: cell-based
Streptococcus pyogenes [15] = assay: as above; format: cell-based; conditions: S. pyogenes
[16] = tested on: Candida albicans ATCC 10231 (NBIMCC 74); assay: Agar diffusion test, inhibitory zones; format: cell-based; conditions: C. albicans; 0.1 ml in 9 mm wells
HRV-A16 = conditions: well-known antiviral compound; cited from earlier work

SMILES: CS(=O)(=O)c1ccc([C@@H](O)[C@@H](CO)NC(=O)C(Cl)Cl)cc1 [Thiamphenicol, thiamphenicol]
- Th D (Total Gram-negative [1]): 64.00 µg/mL
- MIC50 (Total Gram-negative [1]; read-out: Th MIC50): 10.7 µg/mL (≈ 30 µM)
- Th D (Staphylococcus aureus): 64 µg/mL
- MIC50 (Staphylococcus aureus; Staphylococcus aureus, read-out: Th MIC50): 16 µg/mL (≈ 44.9 µM)
- Th D (Candida albicans): 128 µg/mL
- MIC50 (Candida albicans; Candida albicans, read-out: Th MIC50): 32 µg/mL (≈ 89.8 µM)
- Inhibitory zones in mm [2]: 29.7 ± 5.3 mm
- Inhibitory zones in mm [3]: 21.3 ± 0.5 mm
- Inhibitory zones in mm [4]: 35.3 ± 0.8 mm
- Inhibitory zones in mm [5]: 24.3 ± 2.1 mm
- Th D (Pseudomonas aeruginosa [6]): 64 µg/mL
- MIC50 (Pseudomonas aeruginosa [6]; Pseudomonas aeruginosa, read-out: Th MIC50): 8 µg/mL (≈ 22.5 µM)
- Inhibitory zones in mm (Total bacteria [7]): 29.9 ± 5.7 mm
- Inhibitory zones in mm [8]: 36.0 ± 0.8 mm
- Th D (Total bacteria [9]): 66.7 µg/mL
- MIC50 (Total bacteria [9]; Total bacteria, read-out: Th MIC50): 14 µg/mL (≈ 39.3 µM)
- Th D (Clostridium perfringens; C. perfringens): 16 µg/mL
- MIC50 (Clostridium perfringens; Clostridium perfringens, read-out: Th MIC50): 4 µg/mL (≈ 11.2 µM)
- Th D (Total Gram-positive): 42.00 µg/mL
- MIC50 (Total Gram-positive; read-out: Th MIC50): 21 µg/mL (≈ 59 µM)
- Inhibitory zones in mm [10]: 25.7 ± 3.3 mm
- Inhibitory zones in mm (Pseudomonas aeruginosa [11]): 34.8 ± 0.8 mm
- Th D (Salmonella enterica; S. enterica): 64 µg/mL
- MIC50 (Salmonella enterica; Salmonella enterica, read-out: Th MIC50): 16 µg/mL (≈ 44.9 µM)
- Inhibitory zones in mm (Total Gram-negative [12]): 35.4 ± 0.5 mm
- Th D (Esherichia coli): 64 µg/mL
- MIC50 (Esherichia coli; Escherichia coli, read-out: Th MIC50): 8 µg/mL (≈ 22.5 µM)
- Inhibitory zones in mm (Streptococcus pyogenes [13]): 26.0 ± 4.5 mm
- Th D [14]: 84.00 µg/mL
- MIC50 ([14]; Total (all microorganisms), read-out: Th MIC50): 16.6 µg/mL (≈ 46.5 µM)
- Th D (Streptococcus pyogenes [15]): 128 µg/mL
- MIC50 (Streptococcus pyogenes [15]; Streptococcus pyogenes, read-out: Th MIC50): 32 µg/mL (≈ 89.8 µM)
- Inhibitory zones in mm [16]: 28.7 ± 3.7 mm

SMILES: CCOC(=O)/C=C/[C@H](C[C@@H]1CCNC1=O)NC(=O)[C@@H](CC(=O)[C@@H](NC(=O)c1cc(C)on1)C(C)C)Cc1ccc(F)cc1 [rupintrivir]
- antiviral response (HRV-A16): almost complete response
